The source of these data is ChEMBL document CHEMBL5223171, “Synthesis and discovery of Baylis-Hillman adducts as potent and selective thioredoxin reductase inhibitors for cancer treatment” (Bioorg Med Chem, 2023).

A value given as a limit tells only on which side of the number the result lay.

The subject of one assay is A549. The experiment in a line: Cytotoxicity against human A549 cells assessed as reduction in cell viability incubated for 72 hrs by MTT assay. The class given is functional, cell-based. The note with it: A549, 72 h.
Assay [1] deals with HepG2. The assay is described as follows: Cytotoxicity against human HepG2 cells assessed as reduction in cell viability incubated for 72 hrs by MTT assay. The class given is functional, cell-based. The note with it: HepG2, 72 h.
Another assay relates to HeLa. The assay is described as follows: Cytotoxicity against human HeLa cells assessed as reduction in cell viability incubated for 72 hrs by MTT assay. The class given is functional, cell-based. (Formazan colour is commonly taken as a measure of viable cells.)
Assay [2] is described as follows: Inhibition of recombinant TrxR (unknown origin) using DTNB as substrate incubated for 2 hrs in presence of NADPH. Also on record: species or system Homo sapiens.
The test system of assay [3] is HepG2. The experiment in a line: Induction of cell cycle arrest in human HepG2 cells assessed as accumulation at S phase at 10 uM incubated for 48 hrs by propidium iodide staining based flow cytometry (reference value: 20.55%). The class given is functional. On the technique in general: A flow cytometer gives signals particle by particle.
Assay [4] has as its system HepG2. The experiment in a line: Induction of ROS generation in human HepG2 cells assessed as increase in intracellular ROS level at 2.5 to 10 uM incubated for 48 hrs by DCFH-DA staining based fluorescence microscopy. The class given is functional, cell-based. The note with it: dose 2.5-10 µM.
Assay [5] concerns HepG2. The assay is described as follows: Inhibition of TrxR in human HepG2 cells at 2.5 to 10 uM incubated for 48 hrs by NBL-SS probe based assay. The note with it: dose 2.5-10 µM. The class given is cell-based.
The subject of assay [6] is HepG2. The experiment in a line: Inhibition of colony formation in human HepG2 cells at 5 uM incubated for 5 days by crystal violet staining assay. The class given is functional. The note with it: HepG2, 120 h, time 5 day.
The next assay has as its target Thioredoxin reductase (Escherichia coli (strain K12), UniProt P0A9P4). The assay is described as follows: Inhibition of Escherichia coil TrxR incubated for 2 hrs in presence of DTT and insulin.
The species entered for the next assay is Homo sapiens. The experiment in a line: Inhibition of recombinant TrxR (unknown origin) using DTNB as substrate at 10 to 40 uM incubated for 2 hrs in presence of NADPH. The note with it: dose 10-40 µM.
The target of assay [7] is Thioredoxin reductase (Escherichia coli (strain K12)) (UniProt P0A9P4). The assay is described as follows: Inhibition of Escherichia coil TrxR at 10 to 40 uM incubated for 2 hrs in presence of DTT and insulin. The note with it: dose 10-40 µM.
Assay [8] deals with HepG2. The experiment in a line: Induction of cell cycle arrest in human HepG2 cells assessed as accumulation at G1 phase at 10 uM incubated for 48 hrs by propidium iodide staining based flow cytometry (reference value: 64.6%). The class given is functional.
Assay [9] concerns HepG2. The experiment in a line: Inhibition of cell migration in human HepG2 cells at 5 to 10 uM incubated upto 48 hrs by wound healing assay. The class given is functional, cell-based. The note with it: dose 5-10 µM.
Assay [10] deals with HepG2. The experiment in a line: Induction of cell cycle arrest in human HepG2 cells assessed as accumulation at G2 phase at 10 uM incubated for 48 hrs by propidium iodide staining based flow cytometry (reference value: 14.85%). The class given is functional.
Assay [11] deals with HepG2. The experiment in a line: Inhibition of colony formation in human HepG2 cells assessed as reduction in colony number at 5 to 10 uM incubated for 5 days by crystal violet staining assay. The note with it: dose 5-10 µM, time 5.0 day. The class given is functional, cell-based.
Assay [12] deals with HepG2. The assay is described as follows: Inhibition of TrxR in human HepG2 cells at 2.5 to 10 uM incubated for 52 hrs by TRFS-green staining based fluorescence microscopic analysis. The class given is cell-based. The note with it: dose 2.5-10 µM.

Chain of Thioredoxin reductase (Escherichia coli (strain K12)) (P0A9P4 whole entry): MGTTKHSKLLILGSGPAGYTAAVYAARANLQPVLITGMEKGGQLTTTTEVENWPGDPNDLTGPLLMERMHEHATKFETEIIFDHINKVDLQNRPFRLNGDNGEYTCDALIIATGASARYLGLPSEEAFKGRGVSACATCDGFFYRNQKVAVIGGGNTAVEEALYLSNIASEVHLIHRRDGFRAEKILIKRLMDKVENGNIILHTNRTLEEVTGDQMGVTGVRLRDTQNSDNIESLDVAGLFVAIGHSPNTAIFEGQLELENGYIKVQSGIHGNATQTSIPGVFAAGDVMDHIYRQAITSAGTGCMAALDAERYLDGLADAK
Chain of Thioredoxin reductase (P0A9P4 whole entry): as above

For the compound `C=C(COC(=O)Nc1ccc(C)cc1)C(=O)NC(C(=O)NCC(=O)OCC)c1ccc(Br)cc1` (configuration not stated), the results for the IC50 with A549, with HepG2 [1] and in the assay with HeLa were over 20 µM, 18.8 µM and over 20 µM, respectively.

With `C=C(COC(=O)Nc1ccc(C)cc1)C(=O)NC(C(=O)NCC(=O)OCC)c1ccc(Cl)cc1Cl` (configuration not stated), the IC50 in the assay with A549, with HepG2 [1] and in the assay with HeLa was over 20 µM in each case.

Take `C=C(COC(=O)Nc1ccc(C)cc1)C(=O)NC(C(=O)NCC(=O)OCC)c1ccccc1` (configuration not stated): the IC50 (in general, the concentration needed to halve the response being measured) in the assay with A549 was over 20 µM; in the assay on HepG2 [1], 11.5 µM; with HeLa, over 20 µM.

In the case of `C=C(COC(=O)Nc1ccc(C)cc1)C(=O)NC(C(=O)NC(C)(C)C)c1ccc(Cl)cc1` (configuration not stated), the half-inhibitory concentration (IC50) in the assay on A549 was over 20 µM; in the assay with HepG2 [1], 11.6 µM; with HeLa, over 20 µM.

As to `C=C(COC(=O)Nc1ccc(C)cc1)C(=O)NC(C(=O)NCC(=O)OCC)c1ccc(F)cc1` (configuration not stated), the half-inhibitory concentration (IC50) in the assay with A549 is over 20 µM; with HepG2 [1], 17.6 µM; with HeLa, over 20 µM.

For the compound `C=C(COC(=O)Nc1ccc(C)cc1)C(=O)NC(CC(C)C)C(=O)NCC(=O)OCC` (configuration not stated), the half-inhibitory concentration (IC50) with A549 is over 20 µM; in assay [2] it was 4.18 µM; in the assay on HepG2 [1], 4.7 µM; in the assay with HeLa it was over 20 µM; at Thioredoxin reductase, 16.6 µM. Also, the Activity with HepG2 [3] is 17.74%; in the assay on HepG2 [4], “Dose-Dependent Effect”; in the assay on HepG2 [8] it was 72.24%; in the assay on HepG2 [10], 10.02%. Further, the inhibition entry (in the assay on HepG2 [5]; in the assay listed under Homo sapiens; in [7]; in the assay on HepG2 [9]; with HepG2 [11]; in the assay on HepG2 [12]) was “Dose-Dependent Effect” in each case. Moreover, in the assay on HepG2 [6], at 5 µM the inhibition was 67.1%.

On to `CCC(C)SSc1ncc[nH]1` (configuration not stated) [PX-12], for which the concentration for half-maximal inhibition (IC50) in the assay on A549 was over 20 µM; with HepG2 [1], 12 µM; in the assay on HeLa, 9 µM.

In the case of `C=C(COC(=O)Nc1ccc(C)cc1)C(=O)NC(C(=O)NC(C)(C)C)c1ccc(Br)cc1` (configuration not stated), the half-inhibitory concentration (IC50) in the assay on A549, in the assay with HepG2 [1] and in the assay with HeLa was over 20 µM in each case.

On to `C=C(COC(=O)Nc1ccc(C)cc1)C(=O)NC(C(=O)NC(C)(C)C)c1ccc(Cl)cc1Cl` (configuration not stated), for which the concentration for half-maximal inhibition (IC50) in the assay with A549, in the assay on HepG2 [1] and in the assay with HeLa was over 20 µM throughout.

As to `C=C(COC(=O)Nc1ccc(C)cc1)C(=O)NC(C(=O)NCC(=O)OCC)c1ccc(Cl)cc1` (configuration not stated), the IC50 in the assay on A549, in the assay with HepG2 [1] and in the assay on HeLa was over 20 µM throughout.

As to `C=C(COC(=O)Nc1ccc(C)cc1)C(=O)NC(CC(C)C)C(=O)NC(C)(C)C` (configuration not stated), the IC50 in the assay with A549, with HepG2 [1] and with HeLa was over 20 µM throughout.

Turning to `C=C(COC(=O)Nc1ccc(C)cc1)C(=O)NC(C(=O)NC(C)(C)C)c1ccc(F)cc1` (configuration not stated), the IC50 with A549, with HepG2 [1] and with HeLa was over 20 µM in each case.

Turning to `C=C(COC(=O)Nc1ccc(C)cc1)C(=O)NC(C(=O)NC(C)(C)C)c1ccccc1` (configuration not stated), the half-inhibitory concentration (IC50) in the assay on A549, with HepG2 [1] and in the assay on HeLa was over 20 µM in each case.
